{"source": "patent US20250073284A1", "about": "“WEISSELLA CONFUSA, CULTURE METHOD THEREFOR AND USE THEREOF” (SHANGHAI SINGEN PET NUTRITION CO., LTD., priority 2021, published 2025)"}
{"test_system": "strain WSG1", "assay": "Susceptibility evaluation, K-B method (zones of inhibition of antibiotics)", "assay_type": "cell-based, Weissella confusa", "conditions": "antibiotic against strain WSG1, K-B method", "units": {"Diameter of zone of inhibition": "mm"}}
{"compound": "CC1=C(C(=O)O)N2C(=O)[C@@H](NC(=O)[C@H](N)C3=CCC=CC3)[C@H]2SC1", "note": "[Cefradine, cefradine]", "Diameter of zone of inhibition": 17.5}
{"compound": "CC[C@H]1OC(=O)[C@H](C)[C@@H](O[C@H]2C[C@@](C)(OC)[C@@H](O)[C@H](C)O2)[C@H](C)[C@@H](O[C@@H]2O[C@H](C)C[C@H](N(C)C)[C@H]2O)[C@](C)(O)C[C@@H](C)CN(C)[C@H](C)[C@@H](O)[C@]1(C)O", "note": "[Azithromycin, azithromycin]", "Diameter of zone of inhibition": 15.5}
{"compound": "CCC[C@@H]1C[C@@H](C(=O)N[C@@H]([C@H]2O[C@H](SC)[C@H](O)[C@@H](O)[C@H]2O)[C@H](C)Cl)N(C)C1", "note": "[Clindamycin, clindamycin]", "Diameter of zone of inhibition": 23.0}
{"compound": "O=C(N[C@H](CO)[C@H](O)c1ccc([N+](=O)[O-])cc1)C(Cl)Cl", "note": "[Chloramphenicol, chloramphenicol]", "Diameter of zone of inhibition": 23.5}
{"compound": "CN(C)[C@@H]1C(O)=C(C(N)=O)C(=O)[C@@]2(O)C(O)=C3C(=O)c4c(O)cccc4[C@@](C)(O)[C@H]3C[C@@H]12", "note": "[Tetracycline, tetracycline]", "Diameter of zone of inhibition": 19.5}
{"compound": "CC1(C)S[C@@H]2[C@H](NC(=O)[C@H](N)c3ccc(O)cc3)C(=O)N2[C@H]1C(=O)O", "note": "[Amoxicillin, amoxicillin]", "Diameter of zone of inhibition": 15.0}
{"compound": "CN[C@H](CC(C)C)C(=O)N[C@H]1C(=O)N[C@@H](CC(N)=O)C(=O)N[C@H]2C(=O)N[C@H]3C(=O)N[C@H](C(=O)N[C@H](C(=O)O)c4cc(O)cc(O)c4-c4cc3ccc4O)[C@H](O)c3ccc(c(Cl)c3)Oc3cc2cc(c3O[C@@H]2O[C@H](CO)[C@@H](O)[C@H](O)[C@H]2O[C@H]2C[C@](C)(N)[C@H](O)[C@H](C)O2)Oc2ccc(cc2Cl)[C@H]1O", "note": "[Vancomycin, vancomycin]", "Diameter of zone of inhibition": 0.0}
{"compound": "CC(=O)OCC1=C(C(=O)O)N2C(=O)[C@@H](NC(=O)Cc3cccs3)[C@H]2SC1", "note": "[Cephalothin, cephalothin]", "Diameter of zone of inhibition": 23.5}
{"compound": "penicillin", "Diameter of zone of inhibition": 23.5}
{"compound": "Cc1nnc(SCC2=C(C(=O)O)N3C(=O)[C@@H](NC(=O)Cn4cnnn4)[C@H]3SC2)s1", "note": "[Cefazolin, cefazolin]", "Diameter of zone of inhibition": 19.5}
{"compound": "CC1=C(C(=O)O)N2C(=O)[C@@H](NC(=O)[C@H](N)c3ccccc3)[C@H]2SC1", "note": "[Cefalexin, cefalexin]", "Diameter of zone of inhibition": 15.5}
{"compound": "Cc1onc(-c2ccccc2)c1C(=O)N[C@@H]1C(=O)N2[C@@H]1SC(C)(C)[C@@H]2C(=O)O", "note": "[Oxacillin, oxacillin]", "Diameter of zone of inhibition": 7.5}
{"compound": "CCN1CCN(c2cc3c(cc2F)c(=O)c(C(=O)O)cn3C2CC2)CC1", "note": "[Enrofloxacin, enrofloxacin]", "Diameter of zone of inhibition": 13.5}
{"test_system": "strain WSG1", "assay": "Susceptibility evaluation, MIC method", "assay_type": "cell-based", "conditions": "Weissella confusa; marbofloxacin against strain WSG1", "units": {"MIC": "µg/mL"}}
{"compound": "CN1CCN(c2c(F)cc3c(=O)c(C(=O)O)cn4c3c2OCN4C)CC1", "note": "[marbofloxacin]", "MIC": 1020}
